Like-named read-outs stand apart in the source and are kept apart here.
How the values were obtained:
HepG2 cells [1] = conditions: for HepG2 FL2/FL1 ratio: mean ± SD
From the text: (§1) Given the role of mitochondria in both oxidative stress and cell death (apoptosis), we evaluated the mitochondrial membrane potential (MMP) using the JC-1 probe (see methods for details). This probe accumulates in the mitochondria in the form of J-aggregates when in normal mitochondrial conditions (polarized) and presents red fluorescence. By contrast, in unhealthy cells, when depolarization occurs, JC-1 enters the mitochondria in lower concentrations forming monomers inducing a fluorescence shift to green fluorescence, thus the loss of MMP is observed through flow cytometry as a reduction in red (FL2) and an increase in green (FL1) fluorescence, or as a reduction in red/green (FL2/FL1) fluorescence ratio [45, 46].
(§2) Pesticide-induced oxidative stress and apoptosis/necrosis events were analysed by flow cytometry. For this, one colour and two-colour flow cytometry assays were performed, using a BD Accuri™ C6 cytometer (Franklin Lakes, NJ, USA) equipment for data acquisition. Each assay was performed at least in triplicate (n = 3) and 5000 gated events were collected from each sample. Data analysis was performed using BD Accuri™ C6 Software, version 1.0.264.21 supplied by Becton Dickinson (Franklin Lakes, NJ, USA).
(§3) Caco-2 and HepG2 cells (handled as described in Section 3.2.1) were seeded in 12-well microplates (at 5 × 10^4 cells/mL density; 750 µL/well), and allowed to adhere and stabilize for 48 h in the incubator. […] Negative control cells (non-exposed cells) were included in each assay. After a 24 h incubation with test solutions, cells were washed with phosphate buffer saline (PBS) solution and then detached from the microplates (as in Section 3.2.1) and placed in centrifuge tubes and centrifuged (5 min, 3000 rpm, bench micro-centrifuge). After eliminating the supernatant, cells were washed in PBS solution through another centrifuge cycle. Then cells were divided before being incubated with the specific markers to assess oxidative stress markers and cell apoptosis/necrosis.
(§4) Mitochondrial membrane potential was analysed using JC-1 probe following the procedures as described by the manufacturer. Caco-2 and HepG2 cells suspended in PBS were centrifuged (5 min, 3000 rpm, bench micro-centrifuge), the supernatant was removed and 200 μL of JC-1 solution (2 μM; diluted in FBS-free culture media) was added to each sample. The samples were incubated for 20 min at 37 °C (in a CO2 incubator) and then analysed by flow cytometry. Negative control, non-exposed, and positive control cells exposed to the protonophore FCCP (5 μM; carbonyl cyanide p-trifluoromethoxyphenylhydrazone) were performed in each set of experiments.

Caco-2 cells [2] = test system: Caco-2 cells
From the text: as §1, §2, §3, §4

HepG2 cells [3] = assay: Apoptosis/necrosis, Annexin-V-FITC/PI double staining, flow cytometry; assay type: cell-based, human; conditions: HepG2, 24 h, tested concentrations; listed as GLY
Experimental: (§5) The samples where then incubated for 20 min at room temperature. After this period, 5 μL of propidium iodide (PI; at 50 μg/mL) solution were added to each sample 3 min before acquisition.

Caco-2 cells [4] = assay: as above; assay type: cell-based, human; conditions: Caco-2, 24 h, tested concentrations; listed as GLY
Experimental: as §5

HepG2 cells [5] = assay: Glutathione (GSH) content, Mercury Orange, flow cytometry; assay type: cell-based, human; conditions: HepG2, 24 h, tested concentrations
Experimental: (§6) To assess GSH content, cells re-suspended in PBS (see Section 3.3.1) were incubated with 40 μM Mercury Orange (1-(4-chloromercuryphenyl-azo-2-naphtol) for 5 min (in the dark, room temperature), as described by du Plessis, et al..

Caco-2 cells [6] = assay: as above; assay type: cell-based, human; conditions: Caco-2, 24 h, tested concentrations
Experimental: as §6

HepG2 cells [7] = conditions: occupational concentrations; ref [29]; cited from earlier work
HepG2 cells [8] = assay: Lipid peroxidation, DHPE-FITC probe, flow cytometry; assay type: cell-based, human
Experimental: (§7) Lipid peroxidation was evaluated using the DHPE-FITC probe. Cells re-suspended in PBS (see Section 3.3.1) were incubated with 20 μM DHPE-FITC, for 20 min in the dark at room temperature (as describe).

Caco-2 cells [9] = assay: as above; assay type: cell-based, human
Experimental: as §7

HepG2 cells [10] = assay: Alamar Blue cell viability/cytotoxicity assay; assay type: cell-based, human; conditions: mean ± SD (n = 4), read-out: IC50 of pesticide-induced cytotoxicity
Experimental: (§8) In this study, to assess the cytotoxic activity of GLY, IMD, and IMZ, human epithelial colorectal adenocarcinoma (Caco-2), cell lines service (CLS), (Eppelheim, Germany) and human hepatocellular carcinoma (HepG2) (ATCC, Rockville, Maryland, USA) cells were used. Cells were cultured in complete culture media (Dulbecco’s Modified Eagle Media (DMEM), supplemented with 1 mM L-glutamine, 10% (v/v) foetal bovine serum (FBS), and antibiotics (penicillin at 100 U/mL, and streptomycin at 100 μg/mL)) and maintained at 5% CO2/95% air; 37 °C, controlled humidity, in an incubator. Cells were grown in T25 culture flasks to near confluence. Then, these adherent cells were treated with trypsin (trypsin-EDTA), for detachment and subculture, which was stopped using complete culture medium (1:1, trypsin:culture media) as soon as cells were detached (about 6 and 8 minutes of trypsin treatment for HepG2 and Caco-2 cells, respectively). Detached cells were gently re-suspended with a Pasteur pipette and then a sample was counted using an automated cell counter (TC10™, BIORAD, Portugal). A suspension of cells in fresh culture media, at 5 × 10^4 cells/mL was prepared to seed into 96-well microplates (100 µL/well). After seeding, cells were placed in the incubator for 48 h (to adhere and stabilize) before being used, for other details see [66, 67].
(§9) Cell viability was assessed using the Alamar Blue® (AB) assay, after exposure to the pesticides. In summary, cells seeded into 96-well microplates were subjected to various concentrations of the pesticides (GLY: 0–1 mM; IMD: 0–1 mM; IMZ: 0–0.3 mM). To prepare the test solutions, the appropriate volume of the pesticide stock solution was diluted in FBS-free culture media just before its application to the cells. Stock solution of GLY was prepared in water (at 40 mM), and stock solutions of IMD and IMZ were prepared in DMSO (at 20 mM). After 24 h or 48 h of exposure, the test solutions were removed and the Alamar Blue solution (100 µL/well; 10% (v/v) in FBS-free medium) was immediately added to the cells, followed by a further 5 h incubation. The absorbance was then read at 570 and 620 nm using a microplate reader (Multiskan EX; MTX Lab Systems, Inc., Bradenton, FL, USA) and the percentage of the AB reduction was calculated according to the manufacturer’s instructions, as described before. Cell viability, at each condition, was calculated and expressed as percentage of control cells (non-exposed cells).
(§10) The concentrations needed to reduce cell viability by 50% (IC50) were calculated from three independent experiments (each one performed in quadruplicates), as described.

[11] = Alamar Blue cell viability/cytotoxicity assay; assay type: cell-based, human; conditions: human
Experimental: as §8, §9, §10

Caco-2 cells [12] = assay: Alamar Blue cell viability/cytotoxicity assay; assay type: cell-based, human; conditions: mean ± SD (n = 4), read-out: IC50 of pesticide-induced cytotoxicity
Experimental: as §8, §9, §10

HepG2 cells [13] = assay: Intracellular ROS content, DCFDA, flow cytometry; assay type: cell-based, human; conditions: for change in ROS content vs control (in words): HepG2, 24 h, tested concentrations
Experimental: (§11) To assess pesticides-induced oxidative stress, the intracellular content in reactive oxygen species (ROS), content in glutathione (GSH), and lipid peroxidation was quantified by flow cytometry, following the methods described by Domínguez-Perles, et al. and Queiroz, et al.. Briefly, to assess ROS content, cells re-suspended in PBS (from Section 3.3.1) were centrifuged (5 min, 3000 rpm, bench micro-centrifuge) and, after eliminating the supernatant, 200 μL of 10 µM DCFDA solution (prepared in FBS-free DMEM) was added to each sample. After a 45 min incubation at 37 °C (in the dark, in an incubator), cells were centrifuged to remove excess of probe and re-suspended in PBS. Finally, 5 μL of propidium iodide (PI; 50 μg/mL) was added to each sample 3 min before flow cytometry acquisition.

Caco-2 cells [14] = assay: Intracellular ROS content, DCFDA, flow cytometry; assay type: cell-based, human; conditions: for change in ROS content vs control (in words): Caco-2, 24 h, tested concentrations
Experimental: as §11

[15] = ref [47],[48],[49],[50]; cited from earlier work
HepG2 cells [16] = test system: HepG2 cells; set-up: method as in PMID 34635006; conditions: HepG2, 500 μM, 24 h; ref [31]; cited from earlier work
[17] = test system: L-929 cells (fibroblast cell line); set-up: method as in PMID 33177931; conditions: 500 μM, ref [33]; cited from earlier work
[18] = HepG2, FCCP positive control (5 μM)
[19] = IC50 of pesticide-induced cytotoxicity

## N#CC(C#N)=NNc1ccc(OC(F)(F)F)cc1 [FCCP, carbonyl cyanide p-trifluoromethoxyphenylhydrazone, reference compound]
HepG2 cells [1]; [18]
  FL2/FL1 ratio reduction (% of control): 79.87±4.12 % of control
  HepG2 FL2/FL1 ratio: 0.04±0.01
Caco-2 cells [2]; Caco-2, FCCP positive control (5 μM)
  FL2/FL1 ratio reduction (% of control): 93.04±0.93 % of control
Caco-2 cells [2]; Caco-2, FCCP positive control (5 μM), mean ± SD
  Caco-2 FL2/FL1 ratio: 0.06±0.02

## O=C(O)CNCP(=O)(O)O [Glyphosate, N-phosphonomethyl-glycine]
HepG2 cells [3]
  apoptosis/necrosis induction (in words): did not induce significant changes on cell population distribution
Caco-2 cells [4]
  apoptosis/necrosis induction (in words): did not produce significant changes
Caco-2 cells [2]; Caco-2, 24 h, tested concentrations, listed as GLY
  change in mitochondrial membrane potential (in words): did not induce significant changes on MMP
HepG2 cells [5]
  change in GSH content vs control (in words): initial decrease in GSH content
Caco-2 cells [6]
  change in GSH content vs control (in words): did not show GSH levels different from control cells
HepG2 cells [7]
  HepG2 cell viability (in words): no reduction in HepG2 cell viability
HepG2 cells [8]; HepG2, 24 h, tested concentrations
  lipid peroxidation (LP) vs control (in words): did not produce significant LP
Caco-2 cells [9]; Caco-2, 24 h, tested concentrations
  lipid peroxidation (LP) vs control (in words): did not produce significant LP
HepG2 cells [10]; HepG2, 24 h exposure
  IC50: > 1 mM
HepG2 cells [10]; HepG2, 48 h exposure
  IC50: > 1 mM
[11]; Caco-2, 24 h, read-out: IC50 (cytotoxicity)
  IC50 at 24 h: > 1 mM
[11]; Caco-2, 48 h, read-out: IC50 (cytotoxicity)
  IC50 at 48 h: > 1 mM
[11]; HepG2, 24 h, read-out: IC50 (cytotoxicity)
  IC50 at 24 h: > 1 mM
[11]; HepG2, 48 h, read-out: IC50 (cytotoxicity)
  IC50 at 48 h: > 1 mM
Caco-2 cells [12]; Caco-2, 24 h exposure
  IC50: > 1 mM
Caco-2 cells [12]; Caco-2, 48 h exposure
  IC50: > 1 mM
HepG2 cells [13]; listed as GLY
  change in ROS content vs control (in words): control-like ROS levels
Caco-2 cells [14]; listed as GLY
  change in ROS content vs control (in words): control-like ROS levels

## O=[N+]([O-])NC1=NCCN1Cc1ccc(Cl)nc1 [Imidacloprid, imidacloprid]
HepG2 cells [1]
  change in mitochondrial membrane potential (in words): Depolarized MMP
HepG2 cells [1]; HepG2, 100 μM, 24 h
  FL2/FL1 ratio reduction (% of control): 23.79±1.79 % of control
  HepG2 FL2/FL1 ratio: 0.17±0.01
HepG2 cells [1]; HepG2, 250 μM, 24 h
  FL2/FL1 ratio reduction (% of control): 27.49±1.48 % of control
  HepG2 FL2/FL1 ratio: 0.16±0.02
HepG2 cells [1]; HepG2, 500 μM, 24 h
  FL2/FL1 ratio reduction (% of control): 19.93±1.29 % of control
  HepG2 FL2/FL1 ratio: 0.18±0.01
Caco-2 cells [2]; Caco-2, 500 μM, 24 h
  FL2/FL1 ratio reduction (% of control): 21.36±0.05 % of control
Caco-2 cells [2]; Caco-2, 750 μM, 24 h
  FL2/FL1 ratio reduction (% of control): 17.70±2.49 % of control
[15]
  H-bond (donor count): 1
  H-donor (acceptor count): 4
HepG2 cells [5]
  change in GSH content vs control (in words): increased GSH levels
Caco-2 cells [6]
  change in GSH content vs control (in words): increased GSH levels
HepG2 cells [8]
  lipid peroxidation (LP) vs control (in words): not statistically significant
Caco-2 cells [9]
  lipid peroxidation (LP) vs control (in words): induced significant LP
HepG2 cells [16]
  ROS content (in words): doubled ROS content
[17]
  LDH release increase: 50%
[11]
  IC50 at 24 h: 0.624 ± 0.024 mM
  IC50 at 48 h: 0.62 ± 0.011 mM
[11]; [19]
  IC50 at 24 h: > 1 mM
  IC50 at 48 h: 0.832 ± 0.03 mM
HepG2 cells [13]; HepG2, 500 μM, 24 h
  increase in ROS content compared with control: 1.59 fold
HepG2 cells [13]; listed as IMD
  change in ROS content vs control (in words): significant (p < 0.05) increase in ROS content
Caco-2 cells [14]; Caco-2, 750 μM, 24 h
  increase in ROS content compared with control: 1.42 fold
Caco-2 cells [14]; listed as IMD
  change in ROS content vs control (in words): significant (p < 0.05) increase in ROS content

From PMC9331544, “Molecular Physicochemical Properties of Selected Pesticides as Predictive Factors for Oxidative Stress and Apoptosis-Dependent Cell Death in Caco-2 and HepG2 Cells” (International Journal of Molecular Sciences, 2022)
